Marks after values point to notes of the source that are not given here.
Tests used:
[1] = system: MV4; 11-luc disseminated AML disease; experiment: MV4; 11-luc disseminated disease model, tumor response and survival; type: in vivo, mouse
Method: Subcutaneous tumor efficacy studies were performed using outbred athymic nu/nu mice approximately 6-8 weeks old (Charles River Laboratories, Hollister, Calif.). The efficacy study in the disseminated disease model was performed using immunodeficient NOD-SCID female mice approximately 7-8 weeks old (Jackson Laboratories, Bar Harbor, Me.). […] Routine animal care and assurance of welfare were as described above.
Human MV4; 11 acute myelogenous leukemia cells were obtained from American Tissue Culture Collection (catalog #CRL-9591, Rockville, Md.) and tested to be free of Mycoplasma sp. and murine viruses in the IMPACT1 PCR assay panel (RADIL, University of Missouri, Columbia, Mo.). For the disseminated disease model, a stable pool of MV4; 11 cells expressing the luciferase gene was received from Fangxian Sun at the Genomics Institute of the Novartis Research Foundation in San Diego, Calif. (MV4; 11-luc). The MV4; 11 cells were grown in Iscove's modified Dulbecco's medium (Mediatech Inc., catalog #15-016-CV) supplemented with 10% fetal bovine serum (JRH Biosciences, catalog #12003-1000M), 4 mM L-glutamine and 5 ng/mL recombinant human […] (GM-CSF) (R&D Systems, catalog #215-GM). MV4; 11-luc were grown in the same media, but with the addition of 2 micrograms/mL of puromycin for selection of luciferase expression. These cells were grown as suspension cultures, maintained at 37° C. in a humidified atmosphere containing 5% carbon dioxide. Cells were cultured for fewer than 10 passages prior to use. Cells were harvested at approximately 2 million cells/mL, and centrifuged at ˜800×g for 5 minutes at 4° C. and then resuspended in a cold HBSS (Mediatech Inc., catalog #21-021-CV) at a concentration of 25 million cells/mL (containing 50% Matrigel™, BD Biosciences, catalog #354234) for implantation subcutaneously (injection volume of 0.2 mL) or at a concentration of 100 million cells/mL for implantation intravenously (i.v.) via the tail vein (injection volume of 0.1 mL). Mice were irradiated with 3 gray for 3 minutes one day prior to the i.v. cell implant.
The compound IIa (free base) and SB-715992 (free base) were formulated in 20% Captisol for a dose volume of 8 mL/kg. Doses were adjusted to each animal's body weight.
For the efficacy evaluation in the disseminated disease model, female NOD-SCID mice received whole-body irradiation at 3 gray the day before tail vein injection of 10 million cells in 0.1 mL HBSS. Forty mice were randomized and enrolled on study 28 days post-implant, with a mean photon count (dorsal view+ventral view) of approximately 5×10^7 photons/second, as determined by bioluminescence imaging. Approximately 10 minutes prior to imaging, mice were injected i.p. with 150 mg/kg luciferin (Xenogen Corporation, Alameda, Calif.), followed by anesthetization with isoflurane. Photon emission was measured using a charge coupled device camera in the IVIS imaging system (Xenogen Corporation). Briefly, a gray-scale image of the mice was captured, followed by an overlay of a bioluminescence map representing the spatial distribution of photons detected from cleaved luciferin in the cancer cells expressing luciferase. Signal intensity was quantified using a customized version of the IGOR Pro version 4.09A Software (WaveMetrics, Inc., Lake Oswego, Oreg.) called Living Image version 2.50.2 (Xenogen). The sum of all detected photon counts from the dorsal+ventral views was determined. Bioluminescence of cancer cells in the animals was measured by imaging on designated days until the first mice developed hind limb paralysis due to disease burden, the main end point for when to humanely euthanize mice. The day of euthanasia for each mouse was recorded and the remaining percentage of mice surviving was plotted over time (Kaplan-Meier survival analysis). P values were calculated using the log-rank test (GraphPad Prism 4.0 software) to assess differences between treated and control groups (p<0.05 was considered significant). […]

[2] = In vivo pharmacokinetic parameters (clearance, half-life, AUC)
HCT-15 = experiment: CellTiter-Glo proliferation, 72 hours; type: cell-based; conditions: Homo sapiens; Colon, HCT-15, 72 hours
Text: Cell lines used were as follows: HCT-116 (National Cancer Institute's DCTF Tumor Repository, catalog #NCI-502568, Rockville, Md.), HCT-15 (National Cancer Institute's DCTF Tumor Repository, catalog#NCI-502711, Rockville, Md. available from American Type Tissue Collection, catalog #CLL-225), KB-3-1 (available from DSMZ, Deutsche Sammlung von Mikroorganismen und Zellkulturen GmbH (German Collection of Microorganisms and Cell Cultures—catalog number ACC 158), KB-V1 (available from DSMZ—catalog number ACC 149), AGS (available from American Type Culture Collection, Manassas Va., catalog number CRL-1739™), N87 (available from American Type Culture Collection, Manassas Va., catalog number CRL-5822), Hel92.1.7 (available from American Type Culture Collection, Manassas Va., catalog number TIB 180), K562 (available from American Type Culture Collection, Manassas Va., catalog number CRL-243™), MV4; 11 (American Tissue Culture Collection, Manassas Va., catalog number CRL-9591) and U937 (available from American Type Culture Collection, Manassas Va., catalog number CRL-1593.2).
Cells were plated in 96-well plates at densities of about 500 cells per well of a 96-well plate and allowed to grow for 24 hours. The cells were then treated with various concentrations of compounds for 72 hours. Then, 100 μl of CellTiter-Glo® reagent was added (Promega Corporation). CellTiter-Glo® is used in a homogeneous method of determining the number of viable cells using the single CellTiter-Glo® reagent to detect ATP (U.S. Pat. Nos. 6,602,677 and 7,241,584) (see Promega product catalog #G7570). Following the addition of the CellTiter-Glo® reagent, the cells were incubated in the dark for 30 minutes. The amount of luminescence was determined for each well using a Wallac Trilux plate reader, which correlates with the number of cells per well. The number of viable cells in the wells that receive only DMSO (0.5%) served as an indication of 0% inhibition, while wells without cells served as 100% inhibition of cell growth. […] This broad activity is consistent with a compound that is a mitotic inhibitor.

Question: For `CC(C)(C)[C@H](c1nc(-c2cc(F)ccc2F)cn1Cc1ccccc1)N(CC[C@H](N)CF)C(=O)CO` [Compound IIa], which “Median Day of Survival” value ([1]; 0.25 mg/kg, q4d × 3, i.v) is on record?
Answer: 27 days

Question: What about the “Δ Tumor bioluminescence, Day 12” value ([1]; 0.25 mg/kg, q4d × 3, i.v) of the same compound?
Answer: 4.3 × 10^8 photons/sec

Question: What about the “ΔT/ΔC, Day 12 (%)” value ([1]; 0.25 mg/kg, q4d × 3, i.v) of the same compound?
Answer: 46%

Question: And the “Median Day of Survival” value ([1]; 0.25 mg/kg, q4d × 3, i.v, listed as COMPOUND IIa)?
Answer: 27** day

Question: What about the “Median Day of Survival” value ([1]; 0.5 mg/kg, q4d × 3, i.v) of the same compound?
Answer: 31 days

Question: What about the “Regression, Day 12 (%)” value ([1]; 0.5 mg/kg, q4d × 3, i.v) of the same compound?
Answer: 9* %

Question: And the “Δ Tumor bioluminescence, Day 12” value ([1]; 0.5 mg/kg, q4d × 3, i.v)?
Answer: −4.0 × 10^6 photons/sec

Question: And the “Median Day of Survival” value ([1]; 0.5 mg/kg, q4d × 3, i.v, listed as COMPOUND IIa)?
Answer: 31** day

Question: And the “Median Day of Survival” value ([1]; 1 mg/kg, q4d × 3, i.v.)?
Answer: 30 days

Question: What about the “Regression, Day 12 (%)” value ([1]; 1 mg/kg, q4d × 3, i.v.) of the same compound?
Answer: 80* %

Question: And the “Median Day of Survival” value ([1]; 1 mg/kg, q4d × 3, i.v, listed as COMPOUND IIa)?
Answer: 30** day

Question: And the AUC [2]?
Answer: 1930 ng·h/mL

Question: And the half-life [2]?
Answer: 110 min

Question: And the clearance ([2]; read-out: In vivo Clearance rate)?
Answer: 41 mL/min/kg

Question: What about the GI50 (HCT-15) of the same compound?
Answer: 0.3 nM
